In patent publication US20240207263A1, “SELECTIVE MODULATORS OF ATAXIA TELA[…] (ATM) KINASE AND USES THEREOF” (priority 2021, published 2024):

Target: ATM (Homo sapiens (Human), UniProt Q13315)
Assay: biochemical
Assay type: biochemical
Details: read-out: ATM IC50
From the text: Assay a): ATM Biochemical Potency
Data was collected by Caliper.

Sequence of ATM (Q13315 whole entry, looked up): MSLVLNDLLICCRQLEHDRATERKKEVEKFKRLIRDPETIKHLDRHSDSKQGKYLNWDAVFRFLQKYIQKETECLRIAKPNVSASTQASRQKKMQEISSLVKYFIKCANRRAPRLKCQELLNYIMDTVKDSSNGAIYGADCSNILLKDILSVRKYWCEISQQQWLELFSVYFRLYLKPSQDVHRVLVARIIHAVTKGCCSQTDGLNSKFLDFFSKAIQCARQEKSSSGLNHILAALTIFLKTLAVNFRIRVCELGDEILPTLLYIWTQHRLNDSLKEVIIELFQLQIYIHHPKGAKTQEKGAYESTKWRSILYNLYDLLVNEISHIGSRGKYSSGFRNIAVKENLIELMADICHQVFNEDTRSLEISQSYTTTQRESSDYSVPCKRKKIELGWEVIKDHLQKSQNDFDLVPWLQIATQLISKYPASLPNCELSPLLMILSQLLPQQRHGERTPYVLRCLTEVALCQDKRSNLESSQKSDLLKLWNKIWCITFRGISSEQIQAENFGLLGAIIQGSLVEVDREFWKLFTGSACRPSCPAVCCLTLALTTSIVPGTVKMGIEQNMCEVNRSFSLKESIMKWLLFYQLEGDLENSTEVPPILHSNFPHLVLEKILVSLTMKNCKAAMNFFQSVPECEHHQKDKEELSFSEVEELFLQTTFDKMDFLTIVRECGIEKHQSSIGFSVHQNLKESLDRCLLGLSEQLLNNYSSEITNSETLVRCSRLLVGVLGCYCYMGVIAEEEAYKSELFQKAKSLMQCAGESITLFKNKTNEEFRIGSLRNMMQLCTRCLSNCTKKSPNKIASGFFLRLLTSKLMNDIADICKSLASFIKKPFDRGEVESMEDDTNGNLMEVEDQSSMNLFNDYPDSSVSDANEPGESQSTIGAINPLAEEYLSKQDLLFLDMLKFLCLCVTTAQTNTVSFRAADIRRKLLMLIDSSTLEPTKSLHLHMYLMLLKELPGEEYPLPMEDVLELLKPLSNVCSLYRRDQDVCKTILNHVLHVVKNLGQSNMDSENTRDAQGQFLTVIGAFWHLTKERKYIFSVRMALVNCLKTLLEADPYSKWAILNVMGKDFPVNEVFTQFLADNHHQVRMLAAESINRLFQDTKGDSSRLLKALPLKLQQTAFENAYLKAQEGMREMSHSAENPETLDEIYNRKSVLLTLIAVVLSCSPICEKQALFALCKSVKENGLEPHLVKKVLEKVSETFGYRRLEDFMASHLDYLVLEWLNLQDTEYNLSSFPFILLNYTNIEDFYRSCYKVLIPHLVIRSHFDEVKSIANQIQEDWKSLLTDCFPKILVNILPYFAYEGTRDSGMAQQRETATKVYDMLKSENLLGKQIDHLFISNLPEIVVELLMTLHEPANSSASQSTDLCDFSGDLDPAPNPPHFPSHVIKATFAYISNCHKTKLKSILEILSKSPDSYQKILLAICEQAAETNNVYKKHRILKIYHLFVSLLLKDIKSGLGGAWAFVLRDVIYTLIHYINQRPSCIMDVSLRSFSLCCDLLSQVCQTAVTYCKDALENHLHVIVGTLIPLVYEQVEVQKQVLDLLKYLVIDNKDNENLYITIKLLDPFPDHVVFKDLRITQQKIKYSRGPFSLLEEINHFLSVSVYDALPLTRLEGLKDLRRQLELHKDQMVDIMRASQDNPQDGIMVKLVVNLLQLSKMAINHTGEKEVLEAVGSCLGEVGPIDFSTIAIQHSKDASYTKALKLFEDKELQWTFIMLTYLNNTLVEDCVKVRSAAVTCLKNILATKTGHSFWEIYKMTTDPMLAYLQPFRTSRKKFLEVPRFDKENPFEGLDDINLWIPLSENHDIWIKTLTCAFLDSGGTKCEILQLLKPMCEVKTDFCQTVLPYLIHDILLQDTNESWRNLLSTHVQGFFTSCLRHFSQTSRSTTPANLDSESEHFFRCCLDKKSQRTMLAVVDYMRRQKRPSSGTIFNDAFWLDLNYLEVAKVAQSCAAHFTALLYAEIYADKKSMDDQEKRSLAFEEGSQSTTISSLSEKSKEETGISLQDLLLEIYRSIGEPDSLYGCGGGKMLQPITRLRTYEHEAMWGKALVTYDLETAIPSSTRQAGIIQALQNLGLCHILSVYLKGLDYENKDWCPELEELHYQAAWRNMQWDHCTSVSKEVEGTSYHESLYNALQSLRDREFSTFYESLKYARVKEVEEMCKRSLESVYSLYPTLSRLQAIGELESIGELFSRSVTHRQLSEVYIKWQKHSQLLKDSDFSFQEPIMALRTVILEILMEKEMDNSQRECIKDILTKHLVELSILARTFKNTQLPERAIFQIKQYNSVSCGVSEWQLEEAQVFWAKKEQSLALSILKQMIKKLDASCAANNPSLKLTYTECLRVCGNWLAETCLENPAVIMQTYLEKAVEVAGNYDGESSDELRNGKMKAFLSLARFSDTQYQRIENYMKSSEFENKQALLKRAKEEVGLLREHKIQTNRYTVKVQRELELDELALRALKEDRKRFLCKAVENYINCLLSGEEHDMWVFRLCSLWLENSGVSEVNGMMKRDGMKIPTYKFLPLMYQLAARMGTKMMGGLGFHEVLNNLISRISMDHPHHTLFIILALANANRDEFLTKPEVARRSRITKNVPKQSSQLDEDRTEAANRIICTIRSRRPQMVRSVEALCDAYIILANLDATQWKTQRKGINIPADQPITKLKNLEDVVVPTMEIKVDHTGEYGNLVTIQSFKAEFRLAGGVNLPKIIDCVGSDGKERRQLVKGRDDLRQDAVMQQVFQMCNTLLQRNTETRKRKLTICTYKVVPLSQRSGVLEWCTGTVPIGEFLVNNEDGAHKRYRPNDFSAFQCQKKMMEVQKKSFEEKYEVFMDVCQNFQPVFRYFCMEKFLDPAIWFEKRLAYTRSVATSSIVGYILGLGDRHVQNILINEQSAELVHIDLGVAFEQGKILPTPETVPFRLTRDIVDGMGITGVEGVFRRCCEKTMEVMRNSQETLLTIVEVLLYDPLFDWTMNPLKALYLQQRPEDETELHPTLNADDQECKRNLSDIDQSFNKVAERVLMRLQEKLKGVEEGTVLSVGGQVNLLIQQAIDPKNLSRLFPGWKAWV

First: CO[C@H]1C[C@@H](n2c(=O)n(C)c3nnc4ccc(-c5ccc([C@@H](C)OCCN6CCC7(CC6)CC7)nc5)cc4c32)C1 [Example 170, 8-(6-((R)-1-(2-(6-azaspiro[2.5]octan-6-yl)ethoxy)ethyl)pyridin-3-yl)-1-(cis-3-methoxycyclobutyl)-3-methyl-1H-imidazo[4,5-c]cinnolin-2(3H)-one]
Second: CO[C@H]1C[C@H](n2c(=O)n(C)c3nnc4ccc(-c5ccc([C@@H](C)OCCN6CCC7(CC7)C6)nc5)cc4c32)C1 [Example 161, 8-(6-((R)-1-(2-(5-azaspiro[2.4]heptan-5-yl)ethoxy)ethyl)pyridin-3-yl)-1-(trans-3-methoxycyclobutyl)-3-methyl-1H-imidazo[4,5-c]cinnolin-2(3H)-one]
The IC50 of the first is 2.1-fold lower: 1.6 nM for the first, 3.4 nM for the second.

First: Cn1c(=O)n(C2COC2)c2c3cc(-c4ccc(COCCN5CCC(F)CC5)nc4)ccc3nnc21 [Example 179, 8-(6-((2-(4-fluoropiperidin-1-yl)ethoxy)methyl)pyridin-3-yl)-3-methyl-1-(oxetan-3-yl)-1H-imidazo[4,5-c]cinnolin-2(3H)-one]
Second: Cn1c(=O)n([C@H]2CCCOC2)c2c3cc(-c4ccc(COCCN5CC6CC6C5)nc4)ccc3nnc21 (stereo partly drawn) [Example 183, 8-(6-((2-(3-azabicyclo[3.1.0]hexan-3-yl)ethoxy)methyl)pyridin-3-yl)-3-methyl-1-((S)-tetrahydro-2H-pyran-3-yl)-1H-imidazo[4,5-c]cinnolin-2(3H)-one]
The IC50 of the first is 36-fold higher: 729 nM for the first, 20 nM for the second.

First: CC(C)n1c(=O)n(C)c2nnc3ccc(-c4ccc([C@@H](C)OCCN5CCC6(CCC6)C5)nc4)cc3c21 [Example 89, (R)-8-(6-(1-(2-(6-azaspiro[3.4]octan-6-yl)ethoxy)ethyl)pyridin-3-yl)-1-isopropyl-3-methyl-1H-imidazo[4,5-c]cinnolin-2(3H)-one]
Second: CC(C)n1c(=O)n(C)c2nnc3ccc(-c4ccc([C@H](C)OCCN5CCC(F)(F)CC5)nc4)cc3c21 [Example 74, (S)-8-(6-(1-(2-(4,4-difluoropiperidin-1-yl)ethoxy)ethyl)pyridin-3-yl)-1-isopropyl-3-methyl-1H-imidazo[4,5-c]cinnolin-2(3H)-one]
The IC50 of the first is 110-fold lower: 1.6 nM for the first, 179 nM for the second.

First: CC(C)n1c(=O)n(C)c2nnc3cc(F)c(-c4ccc([C@@H](C)OCCN5CCC(C)(C)CC5)nc4)cc3c21 [Example 139, (R)-8-(6-(1-(2-(4,4-dimethylpiperidin-1-yl)ethoxy)ethyl)pyridin-3-yl)-7-fluoro-1-isopropyl-3-methyl-1H-imidazo[4,5-c]cinnolin-2(3H)-one]
Second: CC(C)n1c(=O)n(C)c2nnc3ccc(-c4ccc([C@@H](C)OCCN5CCC(F)(F)CC5)nc4)cc3c21 [Example 75, (R)-8-(6-(1-(2-(4,4-difluoropiperidin-1-yl)ethoxy)ethyl)pyridin-3-yl)-1-isopropyl-3-methyl-1H-imidazo[4,5-c]cinnolin-2(3H)-one]
The IC50 of the first is 6.8-fold lower: 2.8 nM for the first, 19 nM for the second.

`C[C@@H](OCCN1CC2(COC2)C1)c1ccc(-c2ccc3nnc4c(c3c2)n(C2CCOCC2)c(=O)n4C)cn1` [Example 127, (R)-8-(6-(1-(2-(2-oxa-6-azaspiro[3.3]heptan-6-yl)ethoxy)ethyl)pyridin-3-yl)-3-methyl-1-(tetrahydro-2H-pyran-4-yl)-1H-imidazo[4,5-c]cinnolin-2(3H)-one] and `C[C@@H](OCCN1CC2CC2C1)c1ccc(-c2ccc3nnc4c(c3c2)n(C2CCOCC2)c(=O)n4C)cn1` (stereo partly drawn) [Example 104, 8-(6-((1R)-1-(2-(3-azabicyclo[3.1.0]hexan-3-yl)ethoxy)ethyl)pyridin-3-yl)-3-methyl-1-(tetrahydro-2H-pyran-4-yl)-1H-imidazo[4,5-c]cinnolin-2(3H)-one] are within 1.5-fold of each other in IC50: 13 nM for the first, 19 nM for the second.

First: CCC(OCCN1CCCC1)c1ccc(-c2ccc3nnc4c(c3c2)n(C(C)C)c(=O)n4C)cn1 (stereo not drawn) [Example 219, 1-isopropyl-3-methyl-8-(6-(1-(2-(pyrrolidin-1-yl)ethoxy)propyl)pyridin-3-yl)-1H-imidazo[4,5-c]cinnolin-2(3H)-one]
Second: CCCC(OCCN1CCCC1)c1ccc(-c2ccc3nnc4c(c3c2)n(C(C)C)c(=O)n4C)cn1 (stereo not drawn) [Example 220, 1-isopropyl-3-methyl-8-(6-(1-(2-(pyrrolidin-1-yl)ethoxy)butyl)pyridin-3-yl)-1H-imidazo[4,5-c]cinnolin-2(3H)-one]
The IC50 of the first is 2.6-fold lower: 57 nM for the first, 147 nM for the second.

First: C[C@@H](OCCN1CCC(C2COC2)CC1)c1ccc(-c2ccc3nnc4c(c3c2)n(C2CCOCC2)c(=O)n4C)cn1 [Example 128, (R)-3-methyl-8-(6-(1-(2-(4-(oxetan-3-yl)piperidin-1-yl)ethoxy)ethyl)pyridin-3-yl)-1-(tetrahydro-2H-pyran-4-yl)-1H-imidazo[4,5-c]cinnolin-2(3H)-one]
Second: CC(C)n1c(=O)n(C)c2nnc3ccc(-c4ccc([C@@H](C)OCCN5CCC(C6COC6)CC5)nc4)cc3c21 [Example 83, (R)-1-isopropyl-3-methyl-8-(6-(1-(2-(4-(oxetan-3-yl)piperidin-1-yl)ethoxy)ethyl)pyridin-3-yl)-1H-imidazo[4,5-c]cinnolin-2(3H)-one]
The IC50 of the first is 1.9-fold higher: 4.6 nM for the first, 2.4 nM for the second. The second is the more potent here.

Compared with `CC(C)n1c(=O)n(C)c2nnc3ccc(-c4ccc(COCC5(N6CC7CC7C6)CC5)nc4)cc3c21` (stereo not drawn) [Example 18, 8-(6-(((1-(3-azabicyclo[3.1.0]hexan-3-yl)cyclopropyl)methoxy)methyl)pyridin-3-yl)-1-isopropyl-3-methyl-1H-imidazo[4,5-c]cinnolin-2(3H)-one], `CC(C)n1c(=O)n(C)c2nnc3ccc(-c4ccc(COCC5CCN(C)CC5)nc4)cc3c21` [Example 9, 1-isopropyl-3-methyl-8-(6-(((1-methylpiperidin-4-yl)methoxy)methyl)pyridin-3-yl)-1H-imidazo[4,5-c]cinnolin-2(3H)-one] is 2.1-fold lower in IC50: 377 nM for the first, 180 nM for the second.

First: CC(C)n1c(=O)n(C)c2nnc3ccc(-c4ccc([C@@H](C)OCCN5CCCCC5)nc4)cc3c21 [Example 87, (R)-1-isopropyl-3-methyl-8-(6-(1-(2-(piperidin-1-yl)ethoxy)ethyl)pyridin-3-yl)-1H-imidazo[4,5-c]cinnolin-2(3H)-one]
Second: CC(C)n1c(=O)n(C)c2nnc3ccc(-c4ccc([C@@H](C)OCCN5CCC(C(F)(F)F)CC5)nc4)cc3c21 [Example 84, (R)-1-isopropyl-3-methyl-8-(6-(1-(2-(4-(trifluoromethyl)piperidin-1-yl)ethoxy)ethyl)pyridin-3-yl)-1H-imidazo[4,5-c]cinnolin-2(3H)-one]
The IC50 of the first is 4.3-fold higher: 8.2 nM for the first, 1.9 nM for the second.

`CC(C)n1c(=O)n(C)c2nnc3ccc(-c4ccc(COCCN5CCC(C#N)C5)nc4)cc3c21` (stereo not drawn) [Example 25] and `CC(C)n1c(=O)n(C)c2nnc3ccc(-c4ccc(COCCN5CCC[C@@H]5C)nc4)cc3c21` [Example 29, (S)-1-isopropyl-3-methyl-8-(6-((2-(2-methylpyrrolidin-1-yl)ethoxy)methyl)pyridin-3-yl)-1H-imidazo[4,5-c]cinnolin-2(3H)-one] are within 1.5-fold of each other in IC50: 71 nM for the first, 68 nM for the second.

`CC(C)n1c(=O)n(C)c2nnc3ccc(-c4ccc(COCCN5CCCC6(CCC6)C5)nc4)cc3c21` [Example 40, 8-(6-((2-(6-azaspiro[3.5]nonan-6-yl)ethoxy)methyl)pyridin-3-yl)-1-isopropyl-3-methyl-1H-imidazo[4,5-c]cinnolin-2(3H)-one] was tested, and the IC50 was 24 nM.
